Measured values: patent publication US20150328147A1, “METHOD FOR INTRODUCING BIOLOGICALLY ACTIVE SUBSTANCES INTO THE BRAIN” (BBU-VITA CORP., priority 2012, published 2015)
Like-named read-outs stand apart in the source and are kept apart here.

Experiments:
[1] = tested on: haloperidol catalepsy model; conditions: for re-animation of spontaneous motor activity: nasal 2 × 50 μL after haloperidol i.p., dopamine 10^−2M (0.8 mg/kg), H2O2 10^−5M (34 ng/animal)
[2] = tested on: haloperidol catalepsy model
Source text: The criteria of the evaluation: the change in spontaneous motor activity as the sum of movements of the rats in different groupings of the animals, in the “open field” test.

[3] = tested on: haloperidol catalepsy model; remark: listed apart in the source
Source text: The criteria of the evaluation: the change in spontaneous motor activity as the sum of movements of the rats in different groupings of the animals, in the “open field” test. The animal groups: control group: “intact control” (Group I), “haloperidol i.p.” (Group II), “haloperidol i.p.+nasal dopamine” (Group III), and “haloperidol i.p.+nasal L-arginine” in various concentrations (Groups IV and V).

[4] = tested on: haloperidol catalepsy model; conditions: earlier demonstration (DE 102 48 601); cited from earlier work
[5] = tested on: sexually mature white rats; test: Experiment 3: duration of phenobarbital sleep after single or fractionated nasal administration with H2O2; type: in vivo; conditions: phenobarbital 90 mg/kg, H2O2 10^−5M
Source text: Experiment 3: The effect of phenobarbital was investigated experimentally on sexually mature white rats, using a nasal administration. The sleep duration conditioned by phenobarbital following nasal administration of phenobarbital was compared against the presence and absence of vaso-active and neuroactive substance. The typical results of an experiment are listed in Tab. 4.

[6] = Experiment 1, haloperidol i.p. 100 mg/kg, without H2O2, nasal dopamine 10^−3M where given, sum of movements, open field
[7] = Experiment 2, haloperidol i.p. 100 mg/kg, without L-arginine, nasal dopamine 10^−3M where given, sum of movements, open field
[8] = with nasal dopamine 10^−3M, haloperidol model

SMILES: NCCc1ccc(O)c(O)c1 [dopamine]
- re-animation of spontaneous motor activity [1]: did not re-animate the motor activity
- Spontaneous activity [2, 6]: 2 ± 1.7 ^##)
- Spontaneous activity [3, 7]: 2.6 ± 1.7 ^##)

SMILES: N=C(N)NCCC[C@H](N)C(=O)O [L-arginine]
- Spontaneous activity ([3]; Experiment 2, haloperidol i.p., nasal L-arginine 10^−3M (dopamine 10^−3M in the mixture)): 6.4 ± 3.4 ^##)
- Spontaneous activity ([3]; Experiment 2, haloperidol i.p., nasal L-arginine 10^−5M): 4.8 ± 2.7 ^##)
- minimal effective concentration of the endonasal L-arginine [3, 8]: ~10^−7 M
- reanimation of spontaneous motor activity by L-arginine administered nasally together with dopamine [4]: able to reanimate spontaneous motor activity

SMILES: CCC1(c2ccccc2)C(=O)NC(=O)NC1=O [phenobarbital]
- Duration of the experimental sleep (Minutes following the last administration) ([5]; single nasal application of the full dose 18 mg, 2 × 100 μL): 128 ± 11.1 min
- Duration of the experimental sleep (Minutes following the last administration) ([5]; triple nasal application of partial doses 3 × 6 (mg), interval 60 s): 161 ± 21.1 min

SMILES: O=C(CCCN1CCC(O)(c2ccc(Cl)cc2)CC1)c1ccc(F)cc1 [haloperidol]
- reduction of spontaneous motor activity ([1]; single i.p. haloperidol 0.25 mg/kg, cataleptic response): 85%
- Spontaneous activity [2, 6]: 3 ± 3 ^##)
- Spontaneous activity [3, 7]: 3.7 ± 3 ^##)

SMILES: OO [H2O2, hydrogen peroxide]
- re-animation of spontaneous motor activity [1]: did not re-animate the motor activity
- Spontaneous activity ([2]; Experiment 1, haloperidol i.p., nasal H2O2 10^−4M (dopamine 10^−3M in the mixture)): 1.8 ± 2.2 ^##)
- Spontaneous activity ([2]; Experiment 1, haloperidol i.p., nasal H2O2 10^−5M): 3 ± 1.9 ^##)
- minimal effective concentration of the endonasal hydrogen peroxide [2, 8]: 10^−8 to 10^−10 M
